# Reference: ChEMBL document CHEMBL1135338, “Protease inhibitors: synthesis of matrix metalloproteinase and bacterial collagenase inhibitors incorporating 5-amino-2-mercapto-1,3,4-thiadiazole zinc binding functions” (Bioorg Med Chem Lett, 2002)
# pKi: −log10 of the molar value.
# Target: Matrix metalloproteinase-9 (Homo sapiens, UniProt P14780)
# Test: Inhibition of human matrix metalloprotease-9
# Chain of Matrix metalloproteinase-9 (P14780 whole entry): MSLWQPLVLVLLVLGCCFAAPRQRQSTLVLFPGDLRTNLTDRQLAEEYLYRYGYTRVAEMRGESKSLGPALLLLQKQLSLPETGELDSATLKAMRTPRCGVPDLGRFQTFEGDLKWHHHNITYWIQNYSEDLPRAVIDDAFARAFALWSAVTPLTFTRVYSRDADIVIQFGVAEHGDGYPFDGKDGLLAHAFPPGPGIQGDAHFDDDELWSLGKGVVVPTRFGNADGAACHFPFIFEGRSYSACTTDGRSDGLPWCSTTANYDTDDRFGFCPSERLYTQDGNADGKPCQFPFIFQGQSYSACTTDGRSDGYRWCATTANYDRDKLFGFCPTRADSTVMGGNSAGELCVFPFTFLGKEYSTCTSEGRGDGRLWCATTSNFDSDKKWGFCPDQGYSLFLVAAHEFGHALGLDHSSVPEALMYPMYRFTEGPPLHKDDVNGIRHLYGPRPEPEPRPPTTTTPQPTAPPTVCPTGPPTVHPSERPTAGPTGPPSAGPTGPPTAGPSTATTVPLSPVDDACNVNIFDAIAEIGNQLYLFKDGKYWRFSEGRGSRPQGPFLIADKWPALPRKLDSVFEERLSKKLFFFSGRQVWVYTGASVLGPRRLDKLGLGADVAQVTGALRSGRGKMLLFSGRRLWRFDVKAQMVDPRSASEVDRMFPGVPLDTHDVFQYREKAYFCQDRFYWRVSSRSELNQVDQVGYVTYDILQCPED
row,SMILES,pKi
1,C[C@H](NC(=O)[C@H](Cc1ccccc1)NS(=O)(=O)c1ccccc1)C(=O)Nc1n[nH]c(=S)s1,4.82
2,C[C@H](NC(=O)[C@H](Cc1ccccc1)NS(=O)(=O)c1ccccc1[N+](=O)[O-])C(=O)Nc1n[nH]c(=S)s1,4.85
3,CC(=O)Nc1ccc(S(=O)(=O)N[C@@H](Cc2ccccc2)C(=O)N[C@@H](C)C(=O)Nc2n[nH]c(=S)s2)cc1,5.00
4,Cc1ccccc1S(=O)(=O)NC(=O)N[C@@H](Cc1ccccc1)C(=O)N[C@@H](C)C(=O)Nc1n[nH]c(=S)s1,5.15
5,C[C@H](NC(=O)[C@H](Cc1ccccc1)NS(=O)(=O)c1cccc2ccccc12)C(=O)Nc1n[nH]c(=S)s1,4.36
6,C[C@H](NC(=O)[C@H](Cc1ccccc1)NC(=O)NS(=O)(=O)c1ccc(Cl)cc1)C(=O)Nc1n[nH]c(=S)s1,6.40
7,C[C@H](NC(=O)[C@H](Cc1ccccc1)NC(=O)NS(=O)(=O)c1ccc(F)cc1)C(=O)Nc1n[nH]c(=S)s1,6.52

# Further lines, results first:
row,pKi,SMILES
1,4.28,C[C@H](NC(=O)[C@H](Cc1ccccc1)NS(=O)(=O)c1ccc2ccccc2c1)C(=O)Nc1n[nH]c(=S)s1
2,5.70,C[C@H](NC(=O)[C@H](Cc1ccccc1)NS(=O)(=O)c1c(F)c(F)c(F)c(F)c1F)C(=O)Nc1n[nH]c(=S)s1
3,4.85,C[C@H](NC(=O)[C@H](Cc1ccccc1)NS(=O)(=O)c1ccc(F)cc1)C(=O)Nc1n[nH]c(=S)s1
4,5.40,C[C@H](NC(=O)[C@H](Cc1ccccc1)NC(=O)NS(=O)(=O)c1ccccc1)C(=O)Nc1n[nH]c(=S)s1
5,4.54,Cc1cc(C)c(S(=O)(=O)N[C@@H](Cc2ccccc2)C(=O)N[C@@H](C)C(=O)Nc2n[nH]c(=S)s2)c(C)c1
6,4.77,C[C@H](NC(=O)[C@H](Cc1ccccc1)NS(=O)(=O)c1cc(Cl)ccc1Cl)C(=O)Nc1n[nH]c(=S)s1
7,5.30,C[C@H](NC(=O)[C@H](Cc1ccccc1)NS(=O)(=O)c1cccc(C(F)(F)F)c1)C(=O)Nc1n[nH]c(=S)s1
8,4.68,COc1ccc(S(=O)(=O)N[C@@H](Cc2ccccc2)C(=O)N[C@@H](C)C(=O)Nc2n[nH]c(=S)s2)cc1
9,5.30,Cc1ccc(S(=O)(=O)NC(=O)N[C@@H](Cc2ccccc2)C(=O)N[C@@H](C)C(=O)Nc2n[nH]c(=S)s2)cc1

# Target: Neutrophil collagenase (Homo sapiens, UniProt P22894)
# Test: Inhibition of human matrix metalloprotease-8
# Chain of Neutrophil collagenase (P22894 whole entry): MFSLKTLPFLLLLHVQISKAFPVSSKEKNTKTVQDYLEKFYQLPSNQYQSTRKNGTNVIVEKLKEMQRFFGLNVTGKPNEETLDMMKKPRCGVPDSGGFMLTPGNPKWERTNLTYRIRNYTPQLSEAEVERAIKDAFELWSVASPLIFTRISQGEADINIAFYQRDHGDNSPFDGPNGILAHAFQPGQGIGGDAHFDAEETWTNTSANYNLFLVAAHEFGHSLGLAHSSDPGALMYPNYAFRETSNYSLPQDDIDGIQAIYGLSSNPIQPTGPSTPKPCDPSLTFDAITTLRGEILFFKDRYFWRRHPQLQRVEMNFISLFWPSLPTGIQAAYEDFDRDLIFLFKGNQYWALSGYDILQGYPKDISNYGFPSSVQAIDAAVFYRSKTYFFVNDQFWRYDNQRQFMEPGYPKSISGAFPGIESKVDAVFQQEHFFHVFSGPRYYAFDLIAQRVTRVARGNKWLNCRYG
row,SMILES,pKi
1,C[C@H](NC(=O)[C@H](Cc1ccccc1)NS(=O)(=O)c1ccccc1)C(=O)Nc1n[nH]c(=S)s1,4.62
2,C[C@H](NC(=O)[C@H](Cc1ccccc1)NS(=O)(=O)c1ccccc1[N+](=O)[O-])C(=O)Nc1n[nH]c(=S)s1,4.77
3,Cc1ccccc1S(=O)(=O)NC(=O)N[C@@H](Cc1ccccc1)C(=O)N[C@@H](C)C(=O)Nc1n[nH]c(=S)s1,5.22
4,C[C@H](NC(=O)[C@H](Cc1ccccc1)NC(=O)NS(=O)(=O)c1ccc(Cl)cc1)C(=O)Nc1n[nH]c(=S)s1,6.70
5,C[C@H](NC(=O)[C@H](Cc1ccccc1)NC(=O)NS(=O)(=O)c1ccc(F)cc1)C(=O)Nc1n[nH]c(=S)s1,7.00

# Second part, the molecule after the results:
row,pKi,SMILES
1,4.35,C[C@H](NC(=O)[C@H](Cc1ccccc1)NS(=O)(=O)c1ccc2ccccc2c1)C(=O)Nc1n[nH]c(=S)s1
2,6.00,C[C@H](NC(=O)[C@H](Cc1ccccc1)NS(=O)(=O)c1c(F)c(F)c(F)c(F)c1F)C(=O)Nc1n[nH]c(=S)s1
3,4.60,Cc1cc(C)c(S(=O)(=O)N[C@@H](Cc2ccccc2)C(=O)N[C@@H](C)C(=O)Nc2n[nH]c(=S)s2)c(C)c1
4,5.05,C[C@H](NC(=O)[C@H](Cc1ccccc1)NS(=O)(=O)c1cc(Cl)ccc1Cl)C(=O)Nc1n[nH]c(=S)s1
5,4.70,COc1ccc(S(=O)(=O)N[C@@H](Cc2ccccc2)C(=O)N[C@@H](C)C(=O)Nc2n[nH]c(=S)s2)cc1
6,5.30,Cc1ccc(S(=O)(=O)NC(=O)N[C@@H](Cc2ccccc2)C(=O)N[C@@H](C)C(=O)Nc2n[nH]c(=S)s2)cc1

# Target: 72 kDa type IV collagenase (Homo sapiens, UniProt P08253)
# Test: Inhibition of human matrix metalloprotease-2
# Chain of 72 kDa type IV collagenase (P08253 whole entry): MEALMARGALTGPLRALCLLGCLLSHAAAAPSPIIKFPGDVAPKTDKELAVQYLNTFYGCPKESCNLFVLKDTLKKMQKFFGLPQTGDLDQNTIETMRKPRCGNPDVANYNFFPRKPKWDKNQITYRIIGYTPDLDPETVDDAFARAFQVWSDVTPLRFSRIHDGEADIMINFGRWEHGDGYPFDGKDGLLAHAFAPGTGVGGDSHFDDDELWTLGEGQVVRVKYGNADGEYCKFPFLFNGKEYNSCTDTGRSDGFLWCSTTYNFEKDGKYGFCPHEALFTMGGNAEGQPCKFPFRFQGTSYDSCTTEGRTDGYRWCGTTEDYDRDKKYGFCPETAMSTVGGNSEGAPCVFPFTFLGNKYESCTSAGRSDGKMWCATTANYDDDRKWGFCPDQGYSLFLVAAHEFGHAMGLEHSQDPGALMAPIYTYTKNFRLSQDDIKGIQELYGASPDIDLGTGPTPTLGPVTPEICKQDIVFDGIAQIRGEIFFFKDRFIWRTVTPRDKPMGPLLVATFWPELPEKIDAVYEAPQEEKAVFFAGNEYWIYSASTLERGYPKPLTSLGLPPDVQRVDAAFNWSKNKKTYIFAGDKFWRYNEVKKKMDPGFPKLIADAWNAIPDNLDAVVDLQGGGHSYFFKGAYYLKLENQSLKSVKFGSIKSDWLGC
row,SMILES,pKi
1,C[C@H](NC(=O)[C@H](Cc1ccccc1)NS(=O)(=O)c1ccccc1)C(=O)Nc1n[nH]c(=S)s1,4.74
2,C[C@H](NC(=O)[C@H](Cc1ccccc1)NS(=O)(=O)c1ccccc1[N+](=O)[O-])C(=O)Nc1n[nH]c(=S)s1,4.82
3,CC(=O)Nc1ccc(S(=O)(=O)N[C@@H](Cc2ccccc2)C(=O)N[C@@H](C)C(=O)Nc2n[nH]c(=S)s2)cc1,5.10
4,Cc1ccccc1S(=O)(=O)NC(=O)N[C@@H](Cc1ccccc1)C(=O)N[C@@H](C)C(=O)Nc1n[nH]c(=S)s1,5.10
5,C[C@H](NC(=O)[C@H](Cc1ccccc1)NS(=O)(=O)c1cccc2ccccc12)C(=O)Nc1n[nH]c(=S)s1,4.44
6,C[C@H](NC(=O)[C@H](Cc1ccccc1)NC(=O)NS(=O)(=O)c1ccc(Cl)cc1)C(=O)Nc1n[nH]c(=S)s1,5.40
7,C[C@H](NC(=O)[C@H](Cc1ccccc1)NC(=O)NS(=O)(=O)c1ccc(F)cc1)C(=O)Nc1n[nH]c(=S)s1,5.70

# Further lines, results first:
row,pKi,SMILES
1,4.48,C[C@H](NC(=O)[C@H](Cc1ccccc1)NS(=O)(=O)c1ccc2ccccc2c1)C(=O)Nc1n[nH]c(=S)s1
2,5.22,C[C@H](NC(=O)[C@H](Cc1ccccc1)NS(=O)(=O)c1c(F)c(F)c(F)c(F)c1F)C(=O)Nc1n[nH]c(=S)s1
3,4.77,C[C@H](NC(=O)[C@H](Cc1ccccc1)NS(=O)(=O)c1ccc(F)cc1)C(=O)Nc1n[nH]c(=S)s1
4,5.30,C[C@H](NC(=O)[C@H](Cc1ccccc1)NC(=O)NS(=O)(=O)c1ccccc1)C(=O)Nc1n[nH]c(=S)s1
5,4.62,Cc1cc(C)c(S(=O)(=O)N[C@@H](Cc2ccccc2)C(=O)N[C@@H](C)C(=O)Nc2n[nH]c(=S)s2)c(C)c1
6,5.00,C[C@H](NC(=O)[C@H](Cc1ccccc1)NS(=O)(=O)c1cc(Cl)ccc1Cl)C(=O)Nc1n[nH]c(=S)s1
7,4.96,C[C@H](NC(=O)[C@H](Cc1ccccc1)NS(=O)(=O)c1cccc(C(F)(F)F)c1)C(=O)Nc1n[nH]c(=S)s1
8,4.74,COc1ccc(S(=O)(=O)N[C@@H](Cc2ccccc2)C(=O)N[C@@H](C)C(=O)Nc2n[nH]c(=S)s2)cc1
9,5.15,Cc1ccc(S(=O)(=O)NC(=O)N[C@@H](Cc2ccccc2)C(=O)N[C@@H](C)C(=O)Nc2n[nH]c(=S)s2)cc1

# Target: T1, Interstitial collagenase (Homo sapiens, UniProt P03956)
# T1 sequence (P03956 whole entry): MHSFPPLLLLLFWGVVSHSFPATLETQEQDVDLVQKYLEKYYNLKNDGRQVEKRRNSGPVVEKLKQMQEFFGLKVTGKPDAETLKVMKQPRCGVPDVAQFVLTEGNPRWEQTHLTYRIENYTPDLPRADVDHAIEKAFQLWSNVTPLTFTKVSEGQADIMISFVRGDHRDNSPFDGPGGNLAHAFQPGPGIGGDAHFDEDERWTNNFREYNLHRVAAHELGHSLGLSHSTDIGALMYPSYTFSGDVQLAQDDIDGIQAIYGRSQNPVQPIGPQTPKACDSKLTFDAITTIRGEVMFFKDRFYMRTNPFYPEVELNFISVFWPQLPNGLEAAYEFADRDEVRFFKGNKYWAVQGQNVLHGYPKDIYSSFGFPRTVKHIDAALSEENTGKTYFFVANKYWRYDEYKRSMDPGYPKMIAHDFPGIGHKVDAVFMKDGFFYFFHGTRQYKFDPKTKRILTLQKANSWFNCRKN
# Test: Inhibition of human matrix metalloprotease-1
row,SMILES,pKi
1,C[C@H](NC(=O)[C@H](Cc1ccccc1)NS(=O)(=O)c1ccccc1)C(=O)Nc1n[nH]c(=S)s1,4.66
2,C[C@H](NC(=O)[C@H](Cc1ccccc1)NS(=O)(=O)c1ccccc1[N+](=O)[O-])C(=O)Nc1n[nH]c(=S)s1,4.54
3,CC(=O)Nc1ccc(S(=O)(=O)N[C@@H](Cc2ccccc2)C(=O)N[C@@H](C)C(=O)Nc2n[nH]c(=S)s2)cc1,4.85
4,Cc1ccccc1S(=O)(=O)NC(=O)N[C@@H](Cc1ccccc1)C(=O)N[C@@H](C)C(=O)Nc1n[nH]c(=S)s1,4.72
5,C[C@H](NC(=O)[C@H](Cc1ccccc1)NS(=O)(=O)c1cccc2ccccc12)C(=O)Nc1n[nH]c(=S)s1,4.10
6,C[C@H](NC(=O)[C@H](Cc1ccccc1)NC(=O)NS(=O)(=O)c1ccc(Cl)cc1)C(=O)Nc1n[nH]c(=S)s1,5.00
7,C[C@H](NC(=O)[C@H](Cc1ccccc1)NC(=O)NS(=O)(=O)c1ccc(F)cc1)C(=O)Nc1n[nH]c(=S)s1,4.92

# Next, values leading:
row,pKi,SMILES
1,4.14,C[C@H](NC(=O)[C@H](Cc1ccccc1)NS(=O)(=O)c1ccc2ccccc2c1)C(=O)Nc1n[nH]c(=S)s1
2,4.72,C[C@H](NC(=O)[C@H](Cc1ccccc1)NS(=O)(=O)c1ccc(F)cc1)C(=O)Nc1n[nH]c(=S)s1
3,4.72,C[C@H](NC(=O)[C@H](Cc1ccccc1)NC(=O)NS(=O)(=O)c1ccccc1)C(=O)Nc1n[nH]c(=S)s1
4,4.48,Cc1cc(C)c(S(=O)(=O)N[C@@H](Cc2ccccc2)C(=O)N[C@@H](C)C(=O)Nc2n[nH]c(=S)s2)c(C)c1
5,4.72,C[C@H](NC(=O)[C@H](Cc1ccccc1)NS(=O)(=O)c1cc(Cl)ccc1Cl)C(=O)Nc1n[nH]c(=S)s1
6,4.89,C[C@H](NC(=O)[C@H](Cc1ccccc1)NS(=O)(=O)c1cccc(C(F)(F)F)c1)C(=O)Nc1n[nH]c(=S)s1
7,4.55,COc1ccc(S(=O)(=O)N[C@@H](Cc2ccccc2)C(=O)N[C@@H](C)C(=O)Nc2n[nH]c(=S)s2)cc1
8,4.82,Cc1ccc(S(=O)(=O)NC(=O)N[C@@H](Cc2ccccc2)C(=O)N[C@@H](C)C(=O)Nc2n[nH]c(=S)s2)cc1
